Experiments:
[1] = Plasma paritaprevir concentration 7 d after start of OBV/PTV/r treatment (LC-MS/MS); format: in vivo, human; details: OBV/PTV/r 25/150/100 mg orally once daily; for Log10 Ctrough: fasting steady-state plasma trough, day 7, LC-MS/MS, mean ± SD; for AUC (AUC0-6 h): plasma, day 7, 0-6 h after dosing with breakfast, trapezoidal rule
Procedure: This was a single-center, exploratory, prospective study. The study was approved by both the ethical review board of Juntendo University Faculty of Medicine (Jundai-Irin No-2016135) and the Ethics Committee for Human Genome/Gene Analysis Research at Kanazawa University Graduate School of Medical Sciences (No. 2016–004, serial No. 432) and was carried out in accordance with the 1964 Declaration of Helsinki and its later amendments. The study was also registered with UMIN clinical trials as UMIN000022587. Written informed consent was obtained from all patients before enrollment. The study enrolled adult patients with HCV genotype 1b chronic hepatitis or compensated liver cirrhosis using OBV/PTV/r (VIEKIRAX®; AbbVie, Inc., North Chicago, Illinois, USA) at Juntendo University Nerima Hospital. Analysis of resistance-associated variations of the NS5A Y93H substitutions in the baseline sequence was performed in a commercial laboratory (SRL, Inc., Tokyo, Japan), and the patients with the mutant type of NS5A Y93H were excluded. Patients with renal dysfunction (estimated glomerular filtration rate < 40 ml/min/1.73 m^2) were excluded. A precaution in OBV/PTV/r treatment is coadministration of statin medications. Patients taking simvastatin and atorvastatin were excluded; no other patients were taking any other type of statin. Consequently, this study involved 27 consecutive Japanese patients (8 males and 19 females), with ages ranging from 30 to 83 years, treated between June 2016 and July 2017. Twenty patients with chronic hepatitis and seven patients with liver cirrhosis were included. All patients were treated with OBV/PTV/r, at a dose of 25/150/100 mg, administered orally once daily.
Fasting steady-state plasma trough concentrations (Ctrough) of paritaprevir were determined from blood samples obtained 7 d after the start of treatment. The patients were given the same breakfast of 338 kcal, with 15% of calories from protein, 60% from fat, and 25% from carbohydrates. After the meal, the patients took the drugs orally. Paritaprevir concentrations at 2, 4, and 6 h after dosing were determined. Blood samples were centrifuged within 30 min at 1,500 rpm for 10 min at 4°C, and plasma concentrations of paritaprevir were determined using liquid chromatography–tandem mass spectrometry, as described. The area under the plasma concentration curve from 0 to 6 h (AUC0–6 h) of paritaprevir after dosing was calculated using the trapezoidal rule.

[2] = regimen of paritaprevir/ritonavir, ombitasvir, and dasabuvir with or without ribavirin; mainly indirect bilirubin, without elevations in liver enzymes; cited from earlier work
Procedure: The regimen of ombitasvir, paritaprevir, and ritonavir (OBV/PTV/r) without or with ribavirin has been available in Japan since 2015 and 2016, respectively. Ritonavir is included for its booster effect on paritaprevir by cytochrome P450 3A inhibitor. Paritaprevir, a nonstructural (NS)3/4A protease inhibitor, is mainly eliminated via hepatobiliary excretion. It is carried into the hepatocyte by hepatic transporters including organic anion–transporting polypeptides (OATP)1B1 and OATP1B3, located at the sinusoidal membranes of hepatocytes. These transporters also carry unconjugated bili ...

[3] = patients with hyperbilirubinemia (N = 7)
[4] = patients without hyperbilirubinemia (N = 20)

Q: What does the source list for Cc1cnc(C(=O)N[C@H]2CCCCC/C=C\[C@@H]3C[C@@]3(C(=O)NS(=O)(=O)C3CC3)NC(=O)[C@@H]3C[C@@H](Oc4nc5ccccc5c5ccccc45)CN3C2=O)cn1 [paritaprevir]?
A: Log10 Ctrough [1, 3]: 2.768 ± 0.747 ng/ml; AUC (AUC0-6 h) [1, 3]: 37224 ± 21015 ng·h/mL; Log10 Ctrough [1, 4]: 2.169 ± 0.484 ng/ml; AUC (AUC0-6 h) [1, 4]: 31441 ± 21727 ng·h/mL; patients with elevation in total bilirubin (≥ 2.25 mg/dl) [2]: 23%

From paper PMC5927452, “Gadoxetic acid–enhanced magnetic resonance imaging to predict paritaprevir-induced hyperbilirubinemia during treatment of hepatitis C” (PLoS ONE, 2018)
